By IC50 is commonly meant the point on the concentration scale where inhibition reaches its midpoint.

The test system of experiment [1] is collagen-induced arthritis. As to conditions: collagen-induced arthritis model; cited from earlier work.
In experiment [2] the target is T1, Human CCR5 receptor (Homo sapiens, UniProt P51681).
T1 construct: expressed in transfected cells
The experiment is described as follows: Human CCR5 receptor-ligand binding assay. As to conditions: CHO-Gα16-hCCR5 cells, 125I RANTES radioligand. From the text:
Human CCR5 receptor (Genebank ID: 29169292) was cloned into mammalian expression vector, pTarget (Promega). The construct was transfected into CHO-Gα16 cells by using Fugene Reagent (Roche). Clones were selected under antibiotic pressure (G418 and Hygromycin) and sorted 4 times with a fluorescence activates cell sorter and a monoclonal antibody specific for CCR5 receptor (BD Biosciences Pharmigen, Mab 2D7, Cat. No. 555993). The clone with highest expression (100,000 copies per cell) was chosen for the binding assays.
Adherent cells in […] tissue culture flask (˜90% confluent) were harvested using 1 mM EDTA in PBS (phosphate-buffered saline) without Ca^2+ and Mg^2+. Cells were washed twice with PBS containing no Ca^2+ and Mg^2+. CHO-Gα16-hCCR5 cells were then resuspended (1×10^6/mL) in ice cold binding buffer (50 mM HEPES, 1 mM CaCl2, 5 mM MgCl2, 0.5% BSA, 0.05% NaN3, pH 7.24), pH 7.4), supplemented with freshly made 0.5% BSA and 0.05% NaN3.
Eighty μl CHO-Gα16-hCCR5 (1×10^6/mL) cells were added to 96 well plates. All dilutions were made in binding buffer (50 mM HEPES, 1 mM CaCl2, 5 mM MgCl2, 0.5% BSA, 0.05% NaN3, pH 7.24).
The plates were incubated on a cell shaker at RT for 2 h with a final concentration of 0.1 nM ^125I RANTES or ^125I MIP-1α or ^125I MIP-1β. The compound dilutions were made in PBS, 1% BSA. Total reaction volume was 100 μl per well. The test compounds were added to the cells prior to the addition of radioligand.
After incubation, the cells were harvested onto GF/C filter plates using Packard cell harvester. Filters were pretreated with 0.3% PEI/0.2% BSA for 30 min. The filter plate was washed rapidly 5 times with 25 mM HEPES, 500 mM NaCl, 1 mM CaCl2 and 5 mM MgCl2 adjusted to pH 7.1. Plates were dried in oven (70° C.) for 20 min, added with 40 μl scintillation fluid and sealed with Packard TopSeal-A. Packard Top Count was used to measure of the radioactivity for 1 min per well.
Total binding was determined with control wells added with radioisotope and buffer and the non-specific binding was determined using an excess cold RANTES to some of the control wells. Specific binding was determined by subtracting the non-specific form total binding. Results are expressed as the percentage of specific ^125I RANTES binding. IC50 values were determined using varying concentrations of the test ligand in triplicates and the data was analyzed using GraphPad Prism (GraphPad, San Diego, Calif.). c, […]

Experiment [3] concerns NLBal pseudotyped HIV-1. The experiment is described as follows: Antiviral assay, luciferase reporter in JC53BL cells. As to conditions: Human immunodeficiency virus 1, JC53BL, 72 h, read-out: Antiviral Assay IC50. The format is cell-based. The method, then: The sensitivity of a recombinant HIV-1 virus pseudotyped with the envelope proteins of the CCR5-tropic virus NLBal to test compounds was determined in a Luciferase reporter assay using JC53BL cells. NLBal pseudotyped HIV-1 was generated by calcium phosphate transfection of 293T cells (ATCC) with equal amounts of DNA of an envelope-deleted HIV-1 plasmid and of a NLBal envelope expression plasmid. The media (DMEM, 10% fetal bovine serum, 1% Penicillin/streptomycin, 1% Glutamine, all Gibco) was changed 16 h post-transfection and virus containing supernatant was harvested 48 h post-transfection. To determine the sensitivity of NLBal pseudotyped HIV-1, 25.000 JC53BL cells (NIH AIDS Reagent Program) were infected with NLBal pseudotyped HIV-1 in presence of a drug gradient in white 96 well plates (Greiner Bio-one). The volume was adjusted to 200 μL using assay media (DMEM, 10% fetal bovine serum, 1% Penicillin/streptomycin, 1% Glutamine). After incubation at 37° C., 90% relative humidity, 5% CO2 for 3 days, 50 μL of Steady-Glo® Luciferase reagent (Promega) was added, incubated for 5 min at RT and luminescence was measured using a luminometer (Luminoskan, Thermo). The 50% and 90% inhibitory concentrations were calculated using Microsoft XL Fit 4 software.

T1 sequence (P51681 whole entry): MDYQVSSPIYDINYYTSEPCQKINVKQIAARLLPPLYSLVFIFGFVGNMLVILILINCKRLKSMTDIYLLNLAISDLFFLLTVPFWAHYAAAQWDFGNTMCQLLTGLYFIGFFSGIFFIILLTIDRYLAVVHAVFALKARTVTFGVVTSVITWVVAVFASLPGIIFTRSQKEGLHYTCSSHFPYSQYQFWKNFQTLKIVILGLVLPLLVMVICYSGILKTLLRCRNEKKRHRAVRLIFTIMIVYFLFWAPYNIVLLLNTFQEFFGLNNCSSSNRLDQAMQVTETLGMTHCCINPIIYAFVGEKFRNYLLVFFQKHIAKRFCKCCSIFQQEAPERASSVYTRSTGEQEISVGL

As to TAK-779, the “incidence and severity of arthritis” value in experiment [1] was “reduce both the incidence and severity of arthritis”.

For `CCO[C@H]1CC[C@H](CN2C[C@@H](c3ccccc3)N(C3CCN(C4(C)CCN(C(=O)c5c(C)cc(C#N)nc5C)CC4)CC3)C2=O)CC1` [I-10], in experiment [2], the IC50 amounted to 10.6 nM.

`Cc1ncnc(C)c1C(=O)N1CCC(C)(N2CCC(N3C(=O)N(CC4CCOCC4)CC3c3cccc(F)c3)CC2)CC1` (stereo not shown) [I-27]: in experiment [2], the IC50 stood at 89.4 nM.

`Cc1ncnc(C)c1C(=O)N1CCC(C)(N2CCC(N3C(=O)N(CC4CCOCC4)C[C@H]3c3ccccc3)CC2)CC1` [I-5, (R)-3-[1′-(4,6-Dimethyl-pyrimidine-5-carbonyl)-4′-methyl-[1 ,4′]bipiperidinyl-4-yl]-4-phenyl-1-(tetrahydro-pyran-4-ylmethyl)-imidazolidin-2-one] gave a half-maximal inhibitory concentration (IC50) in experiment [2] of 23.7 nM.

For `Cc1cc(C#N)nc(C)c1C(=O)N1CCC(C)(N2CCC(N3C(=O)N(CC4CCOCC4)C[C@H]3c3ccccc3)CC2)CC1` [I-7], the IC50 in experiment [2] came to 11.2 nM.

The compound `Cc1cc(C#N)nc(C)c1C(=O)N1CCC(C)(N2CCC(N3C(=O)N(CC4CCN(CC(F)F)CC4)C[C@H]3c3ccccc3)CC2)CC1` [I-15] came in with a half-inhibitory concentration (IC50) in experiment [2] of 18.3 nM.

Compound `CCCCC1CN(C2CCOCC2)C(=O)N1C1CCN(C2(C)CCN(C(=O)c3c(C)ncnc3C)CC2)CC1` (stereo not shown) [I-2] had an IC50 in experiment [2] of 969 nM.

In experiment [2], `Cc1ncnc(C)c1C(=O)N1CCC(C)(N2CCC(N3C(=O)N(CC4CCOCC4)CC3c3ccccc3)CC2)CC1` (stereo not shown) [I-6, 3-[1′-(4,6-Dimethyl-pyrimidine-5-carbonyl)-4′-methyl-[1,4′]bipiperidinyl-4-yl]-4-phenyl-1-(tetrahydro-pyran4-ylmethyl)-imidazolidin-2-one] had an IC50 of 27.5 nM.

`Cc1cc(C#N)nc(C)c1C(=O)N1CCC(C)(N2CCC(N3C(=O)N(C4CCC(O)CC4)C[C@H]3c3ccccc3)CC2)CC1` (stereo partly drawn) [I-23, 5-{4-[(R)-3-(4-Hydroxy-cyclohexyl)-2-oxo-5-phenyl-imidazolidin-1-yl]-4′-methyl-[1,4′]bipiperidinyl-1′-carbonyl}-4,6-dimethyl-pyridine-2-carbonitrile] returned an IC50 in experiment [2] of 20.6 nM.

The compound `Cc1noc(C(F)(F)F)c1C(=O)N1CCC(C)(N2CCC(N3C(=O)N(C[C@H]4CC[C@H](O)CC4)C[C@H]3c3ccccc3)CC2)CC1` [I-24, (R)-1-(4-Hydroxy-cyclohexylmethyl)-3-[4′-methyl-1′-(3-methyl-5-trifluoromethyl-isoxazole-4-carbonyl)-[1,4′]bipiperidinyl-4-yl]-4-phenyl-imidazolidin-2-one] displayed an IC50 in experiment [2] of 7.1 nM.

The compound `CC(=O)N1CCC(CN2C[C@@H](c3ccccc3)N(C3CCN(C4(C)CCN(C(=O)c5c(C)cc(C#N)nc5C)CC4)CC3)C2=O)CC1` [I-20, 5-{4-[(R)-3-(1-Acetyl-piperidin-4-ylmethyl)-2-oxo-5-phenyl-imidazolidin-1-yl]-4′-methyl-[1,4′]bipiperidinyl-1′-carbonyl}-4,6-dimethyl-pyridine-2-carbonitrile] registered an IC50 in experiment [2] of 42.5 nM.

Regarding `Cc1cc(C#N)nc(C)c1C(=O)N1CCC(C)(N2CCC(N3C(=O)N(CC4CCN(C(N)=O)CC4)C[C@H]3c3ccccc3)CC2)CC1` [I-21, 4-{(R)-3-[1′-(6-Cyano-2,4-dimethyl-pyridine-3-carbonyl)-4′-methyl-[1,4′]bipiperidinyl-4-yl]-2-oxo-4-phenyl-imidazolidin-1-ylmethyl}-piperidine-1-carboxylic acid amide], the IC50 in experiment [2] turned out to be 44 nM.

The compound `CCO[C@H]1CC[C@H](CN2C[C@@H](c3ccccn3)N(C3CCN(C4(C)CCN(C(=O)c5c(C)cc(C#N)nc5C)CC4)CC3)C2=O)CC1` [I-26, 5-{4-[(S)-3-(4-Ethoxy-cyclohexylmethyl)-2-oxo-5-pyridin-2-yl-imidazolidin-1-yl]-4′-methyl-[1,4′]bipiperidinyl-1′-carbonyl}-4,6-dimethyl-pyridine-2-carbonitrile] had an IC50 in experiment [2] of 24.7 nM.

Take `CCCCC1CN(C2CCOCC2)C(=O)N1C1CCN(C2(C)CCN(C(=O)c3c(C)cc(C#N)nc3C)CC2)CC1` (stereo not shown) [I-1, 5-{4-[5-Butyl-2-oxo-3-(tetrahydro-pyran-4-yl)-imidazolidin-1-yl]-4′-methyl-[1,4′]bipiperidinyl-1′-carbonyl}-4,6-dimethyl-pyridine-2-carbonitrile]: the IC50 in experiment [3] amounted to 19.8 nM; in experiment [2], 8.5 nM.

For the compound `COC(=O)N1CCC(CN2C[C@@H](c3ccccc3)N(C3CCN(C4(C)CCN(C(=O)c5c(C)cc(C#N)nc5C)CC4)CC3)C2=O)CC1` [I-17], the IC50 in experiment [2] was determined as 35.7 nM.

Consider `Cc1cc(C#N)nc(C)c1C(=O)N1CCC(C)(N2CCC(N3C(=O)N(CC4CCN(S(C)(=O)=O)CC4)C[C@H]3c3ccccc3)CC2)CC1` [I-18, 5-{4-[(R)-3-(1-Methanesulfonyl-piperidin4-ylmethyl)-2-oxo-5-phenyl-imidazolidin-1-yl]-4′-methyl-[1,4′]bipiperidinyl-1′-carbonyl}-4,6-dimethyl-pyridine-2-carbonitrile], for which the IC50 in experiment [2] amounted to 36.6 nM.

Regarding `CCCCC1CN(CC2CCOCC2)C(=O)N1C1CCN(C2(C)CCN(C(=O)c3c(C)cc(C#N)nc3C)CC2)CC1` (stereo not shown) [I-4], the half-inhibitory concentration (IC50) in experiment [2] came to 4.4 nM.

In turn, `CCCCC1CN(CC2CCOCC2)C(=O)N1C1CCN(C2(C)CCN(C(=O)c3c(C)ncnc3C)CC2)CC1` (stereo not shown) [I-3, 4-Butyl-3-[1′-(4,6-dimethyl-pyriridine-5-carbonyl)-4′-methyl-[1,4′]bipiperidinyl-4-yl]-1-(tetrahydro-pyran-4-ylmethyl)-imidazolidin-2-one] registered an IC50 in experiment [2] of 110 nM.

In experiment [2], `Cc1ncnc(C)c1C(=O)N1CCC(C)(N2CCC(N3C(=O)N(CC4CCN(CC(F)F)CC4)C[C@H]3c3ccccc3)CC2)CC1` [I-14, (R)-1-[1-(2,2-Difluoro-ethyl)-piperidin-4-ylmethyl]-3-[1′-(4,6-dimethyl-pyrimidine-5-carbonyl)-4′-methyl-[1,4′]bipiperidinyl-4-yl]-4-phenyl-imidazolidin-2-one] gave an IC50 of 26.4 nM.

Compound `Cc1ncnc(C)c1C(=O)N1CCC(C)(N2CCC(N3C(=O)N(CC4CCN(S(C)(=O)=O)CC4)C[C@H]3c3ccccc3)CC2)CC1` [I-19] yielded an IC50 in experiment [2] of 117 nM.

Regarding `CCO[C@H]1CC[C@H](CN2C[C@@H](c3ccccc3)N(C3CCN(C4(C)CCN(C(=O)c5c(C)ncnc5C)CC4)CC3)C2=O)CC1` [I-9], the IC50 in experiment [2] turned out to be 12.6 nM.

`Cc1ncnc(C)c1C(=O)N1CCC(C)(N2CCC(N3C(=O)N(C4CCOCC4)C[C@H]3c3ccccc3)CC2)CC1` [I-13] came in with an IC50 in experiment [2] of 90 nM.

In experiment [2], `Cc1cc(C#N)nc(C)c1C(=O)N1CCC(C)(N2CCC(N3C(=O)N(C4CCOCC4)C[C@H]3c3ccccc3)CC2)CC1` [I-12] returned an IC50 of 90 nM.

On to `CCO[C@H]1CC[C@H](CN2C[C@@H](c3ccccc3)N(C3CCN(C4(C)CCN(C(=O)c5c(C)noc5C(F)(F)F)CC4)CC3)C2=O)CC1` [I-11], for which the IC50 in experiment [2] was 6.8 nM.

Turning to `Cc1noc(C(F)(F)F)c1C(=O)N1CCC(C)(N2CCC(N3C(=O)N(CC4CCOCC4)C[C@H]3c3ccccc3)CC2)CC1` [I-8], the IC50 in experiment [2] amounted to 5.1 nM.

`Cc1cc(C#N)nc(C)c1C(=O)N1CCC(C)(N2CCC(N3C(=O)N(CC4CCOC4)CC3c3ccccc3)CC2)CC1` (stereo not shown) [I-25] registered an IC50 in experiment [2] of 54.4 nM.

Regarding `COC(=O)N1CCC(CN2C[C@@H](c3ccccc3)N(C3CCN(C4(C)CCN(C(=O)c5c(C)ncnc5C)CC4)CC3)C2=O)CC1` [I-16, 4-{(R)-3-[1′-(4,6-Dimethyl-pyrimidine-5-carbonyl)-4′-methyl-[1,4′]bipiperidinyl-4-yl]-2-oxo-4-phenyl-imidazolidin-1-ylmethyl}-piperidine-1-carboxylic acid methyl ester], the IC50 in experiment [2] worked out at 25.8 nM.

The values above are taken from patent US20090028818A1, “Heterocyclic antiviral compounds” (Roche Palo Alto LLC, priority 2007, published 2009).
